Columns and labels:
GPR119 [1] = target: T1, GPR119 (Mus musculus, UniProt Q7TQP3); assay: Pharmacodynamic analysis of effect of oral GPR119 agonist on blood (plasma total) GIP level in wild-type mice, rodent GIP ELISA; type: in vivo, C57blk/6 male mice; set-up: Effect of Administration of GPR119 Agonist on Blood GIP Level in Wild-Type Mice; endogenous in cells; host or cells: whole animal: C57blk/6 male mice, oral dosing; conditions: 20 mg/kg per orally, 30 min before glucose bolus 3 g/kg, FIG. 1A
T1 sequence (Q7TQP3 1-335): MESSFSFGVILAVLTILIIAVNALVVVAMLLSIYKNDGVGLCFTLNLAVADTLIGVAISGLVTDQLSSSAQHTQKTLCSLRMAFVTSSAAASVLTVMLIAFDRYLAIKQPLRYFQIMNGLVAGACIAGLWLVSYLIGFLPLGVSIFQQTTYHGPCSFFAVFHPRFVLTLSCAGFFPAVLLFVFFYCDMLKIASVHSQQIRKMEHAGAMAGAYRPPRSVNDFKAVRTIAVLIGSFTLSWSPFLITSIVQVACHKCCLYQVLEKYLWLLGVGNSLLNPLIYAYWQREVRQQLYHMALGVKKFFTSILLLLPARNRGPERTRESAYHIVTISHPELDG
Protocol: A. C57blk/6 male mice were fasted for 18 hours, and randomly assigned into fourteen groups with n=6 for each group. Mice were administered per orally with vehicle (PET; 80% PEG400, 10% ethanol, 10% Tween80) or with a GPR119 agonist in accordance with the present invention (Compound 1; (2-Fluoro-4-methanesulfonyl-phenyl)-{6-[4-(3-isopropyl-1,2,4]oxadiazol-5-yl)-piperidin-1-yl]-5-nitro-pyrimidin-4-yl}-amine) at 20 mg/kg, as indicated in FIG. 1A. Thirty minutes after treatment, a glucose bolus at 3 g/kg were delivered per orally, and plasma were collected at 0 (no glucose bolus), 2, 5, 10, 20, 40 and 60 minutes after glucose bolus. Plasma GIP levels were determined by using a rodent GIP ELISA kit purchased from Linco Research Laboratory [Rat/Mouse Gastric Inhibitory Polypeptide (Total) ELISA Catalog #EZRMGIP-55K], following instructions provided by the supplier. […]
B. C57blk/6 male mice were fasted for 18 hours, and randomly assigned into fourteen groups with n=6 for each group. […] Plasma GIP levels were determined by using a rodent GIP ELISA kit purchased from Linco Research Laboratory [Rat/Mouse Gastric Inhibitory Polypeptide (Total) ELISA Catalog #EZRMGIP-55K], following instructions provided by the supplier. […] Mean values of GIP concentration were calculated based on results with six mice in each group and shown as mean±SEM. […]

GPR119 [2] = target: T1, GPR119; assay: Effect of oral GPR119 agonist on blood GIP level in GPR119-deficient (knockout) mice compared to wild-type mice, rodent GIP ELISA; type: in vivo, GPR119-deficient male mice and wild-type littermates; set-up: endogenous in cells; host or cells: whole animal: GPR119-deficient male mice and wild-type littermates, oral dosing; conditions: 20 mg/kg per orally, FIG. 2A
Protocol: A. GPR119-deficient male mice and wild-type littermates were fasted for 18 hours. Mice were administered per orally with vehicle (PET; 80% PEG400, 10% ethanol, 10% Tween80) or with a GPR119 agonist in accordance with the present invention (Compound 1; (2-Fluoro-4-methanesulfonyl-phenyl)-{6-[4-(3-isopropyl-[1,2,4]oxadiazol-5-yl)-piperidin-1-yl]-5-nitro-pyrimidin-4-yl}-amine) at 20 mg/kg, as indicated (n=5). Thirty minutes after treatment, blood (100 microliter) was collected via retro orbital vein of the eye (time 0) followed by a glucose bolus at 3 g/kg (per orally). Five minutes after I delivering glucose, another blood sample (100 microliter) was collected (time 5 minutes). Plasma were collected after centrifugation and GIP levels were determined by using a rodent GIP ELISA kit purchased from Linco Research Laboratory [Rat/Mouse Gastric Inhibitory Polypeptide (Total) ELISA Catalog #EZRMGIP-55K], following instructions provided by the supplier. […]
B. GPR119-deficient male mice and wild-type littermates were fasted for 18 hours. […] Plasma were collected after centrifugation and GIP levels were determined by using a rodent GIP ELISA kit purchased from Linco Research Laboratory [Rat/Mouse Gastric Inhibitory Polypeptide (Total) ELISA Catalog #EZRMGIP-55K], following instructions provided by the supplier. […]

plasma total GIP (GPR119 [1]; plasma at 0 (no glucose bolus), 2, 5, 10, 20, 40, 60 min, vs vehicle PET): stimulated plasma total GIP
dependence on GPR119 of the increase of glucose-independent and glucose-dependent level of GIP in the blood (GPR119 [2]; GPR119-deficient vs wild-type mice, time 0 and 5 min after glucose bolus 3 g/kg): functional GPR119 receptor was necessary
Structure (SMILES): CC(C)c1noc(C2CCN(c3ncnc(Nc4ccc(S(C)(=O)=O)cc4F)c3[N+](=O)[O-])CC2)n1 [Compound 1, (2-Fluoro-4-methanesulfonyl-phenyl)-{6-[4-(3-isopropyl-[1,2,4]oxadiazol-5-yl)-piperidin-1-yl]-5-nitro-pyrimidin-4-yl}-amine]
glucose-dependent and glucose-independent level of GIP in the blood (GPR119 [1]; plasma at 0 (no glucose bolus) to 60 min): increased both a glucose-dependent and a glucose-independent level of GIP
plasma total GIP in wild-type mice (GPR119 [2]; blood 30 min after treatment (time 0) and 5 min after glucose bolus 3 g/kg): stimulated plasma total GIP in the wild-type mice

— patent US8580526B2, “Methods of using GPR119 receptor to identify compounds which stimulate glucose-dependent insulinotropic peptide secretion” (Arena Pharmaceuticals, Inc., priority 2006, dated 2013)
